In paper PMC8327158, “PEGylated AdipoRon derivatives improve glucose and lipid metabolism under insulinopenic and high-fat diet conditions” (Journal of Lipid Research, 2021):

System: HFD-fed wild-type mice
Assay: Sphingolipid levels in tissues and serum of HFD-fed mice by mass spectrometry
Assay type: in vivo, mouse
Conditions: for Cer 14:0 / Cer 16:0 / Cer 18:0 / Cer 18:1 / Cer 20:0 / Cer 22:0 / Cer 24:0 / Cer 24:1 / Cer 26:0 / Cer 26:1 / DeoxySphinganie / Deoxysphingosine / Hexosyl 14:0 / Hexosyl 16:0 / Hexosyl 18:0 / Hexosyl 20:0 / Hexosyl 22:0 / Hexosyl 24:0 / Hexosyl 24:1 / Lactosyl 16:0 / Lactosyl 18:0 / Lactosyl 22:0 / Lactosyl 24:1 / Lactosyl C24:0 / Sphingaine1P / Sphinganine / Sphingosine / Sphingosine1P / dCer 16:0 / dCer 18:0 / dCer 20:0 / dCer 22:0 / dCer 24:0 / dCer 24:1: 5 mg/kg twice a day 5 days, average ± SD
Experimental: Six-week-old wild-type male mice were fed HFD for 4 weeks or 7 months In total, 5 mg/Kg of PBS, Adiporon, AdipoRonPEG5, AdipoRonPEG6HTL were injected twice a day for 5 days. After 5 days of treatment, systemic test is performed, and serum (Before and after treatment), subcutaneous, epididymal, liver, heart samples were harvested for qPCR and sphingolipid analysis.
Flash-frozen tissue samples (~40 mg) in a borosilicate glass tube were quenched with 2.0 ml of organic extraction solvent (isopropanol: ethyl acetate, 15:85; v:v) and homogenized with a mechanical tissue disruptor. Immediately afterward, 20 μl of organic internal standard solution was added (Ceramide/Sphingoid Internal Standard Mixture II diluted 1:10 in ethanol). The mixture was vortexed for 20 s and sonicated in ultrasonic bath for 40 min at 40°C. The organic extract was allowed to reach room temperature, and 1.5 ml of HPLC water was added and a two-phase liquid-liquid extraction was performed. The upper phase was transferred to a new clean tube, and the lower aqueous phase containing the protein pellet was re-extracted with additional 2.0 ml of organic extraction solvent. The organic phases were combined and dried under nitrogen stream at 40°C. Dried extracts were stored at –80°C until analysis. For analysis of ceramides and sphingoid base species, the dried residues were reconstituted in 200 μl of methanol. Sphingomyelins required a sample dilution of 1:50 in methanol prior to analysis. Serum sphingolipids were extracted using a similar methodology requiring 25 μl of serum.
Liver, subcutaneous adipose tissue, pancreas, pancreatic islets were initially homogenized in 500 μl of cold PBS using an ultrasonic probe disruptor and keeping the sample on ice during sonication. In total, 50 μl of aqueous homogenate was aliquoted for protein determination. In total, 400 μl of the lysate was immediately quenched in 2.0 ml of organic extraction solvent.
In total, 5 μl of reconstituted samples was injected into an LC/MS/MS system for the analysis of ceramides and sphingoid bases, and 1 μl injection was required for the analysis of sphingomyelins. The system consisted of a Shimadzu LCMS-8050 triple-quadrupole mass spectrometer with the dual ion source operating in electrospray positive ionization mode. The mass spectrometer is coupled to a Shimadzu Nexera X2 UHPLC system equipped with three solvent delivery modules LC-30AD, three degassing units DGU-20A5R, an autosampler SIL-30ACMP, and a column oven CTO-20AC operating at 40°C (Shimadzu Scientific Instruments, Columbia, MD). Six sphingoid bases (d18:1 sphingosine, d18:1 sphingosine-1-phosphate, d18:1 deoxysphingosine, d18:0 sphinganine, d18:0 sphinganine-1-phosphate, d18:0 deoxysphinganine) and […] ceramide species and their metabolites (C16:0, C16:0 dihydroceramide, C16:0 glucosylceramide, C16:0 lactosylceramide, C16:0 sphingomyelin, C18:0, C18:0 dihydroceramide, C18:0 glucosylceramide, C18:0 sphingomyelin, C18:1, C20:0, C22:0, C22:0 glucosylceramide, C24:0, C24:0 dihydroceramide, C24:0 lactosylceramide, C24:0 sphingomyelin, C24:1, C24:1 dihydroceramide, C24:1 glucosylceramide, C24:1 sphingomyelin). Quantitative analysis of sphingolipids was achieved using selective reaction monitoring scan mode. Lipid separation was achieved by reverse phase LC on a 2.1 (i.d.) × 150 mm Ascentis Express C8, 2.7 micron (Supelco, Bellefonte, PA) column under gradient elution, using three different mobile phases: eluent A consisting of methanol/water/formic acid, 600/400/0.8, v/v/v with 5 mM ammonium formate, eluent B consisting of methanol/formic acid, 1,000/0.8, v/v with 5 mM ammonium formate, and eluent C consisting of CH3OH/CH2Cl2 350/650. The concentration of each metabolite was determined according to calibration curves using the peak-area ratio of analyte versus corresponding internal standard. Calibration curves were generated using serial dilutions of each target analyte.

For `O=C(COc1ccc(C(=O)c2ccccc2)cc1)NC1CCN(Cc2ccccc2)CC1` [AdipoRon], the “scWAT ceramide levels” value (5 mg/kg) was “neither AdipoRon nor AdipoRonPEG5 had a noticeable impact”, the “hepatic dihydroceramides” value (IP 5 mg/kg) was “nor did it lower dihydroceramide” and the “sphingoid bases including S1P in the liver” value (IP 5 mg/kg) was “neither increased sphingoid bases”. For the same compound, the “Cer 14:0” value (liver) was 11180.9 ± 7129.23 pg/mg, the “Cer 16:0” value (liver) was 15452.5 ± 14214.83 pg/mg and the “Cer 18:0” value (liver) was 47128.6 ± 39264.7 pg/mg. For the same compound, the “Cer 18:1” value (liver) was 0 pg/mg, the “Cer 20:0” value (liver) was 2021924.3 ± 1132557.52 pg/mg and the “Cer 22:0” value (liver) was 21221267.5 ± 1938950.14 pg/mg. The “Cer 24:0” value (liver) was 8844684.8 ± 1440139.38 pg/mg, the “Cer 24:1” value (liver) was 7621686.9 ± 1072827.16 pg/mg and the “Cer 26:0” value (liver) was 108319.5 ± 12837.73 pg/mg. The “Cer 26:1” value (liver) was 87632.7 ± 14143.63 pg/mg, the DeoxySphinganie (liver) was 16855.9 ± 5197.82 pg/mg and the Deoxysphingosine (liver) was 554.4 ± 112.17 pg/mg. The “Hexosyl 14:0” value (liver) was 6839.3 ± 2807.56 pg/mg, the “Hexosyl 16:0” value (liver) was 2057918.6 ± 682419.73 pg/mg and the “Hexosyl 18:0” value (liver) was 13702.3 ± 11183.27 pg/mg. The “Hexosyl 20:0” value (liver) was 139906.7 ± 74494.86 pg/mg, the “Hexosyl 22:0” value (liver) was 21992555.3 ± 7887275.74 pg/mg and the “Hexosyl 24:0” value (liver) was 9407290.2 ± 3691767.57 pg/mg. For the same compound, the “Hexosyl 24:1” value (liver) was 7250991.4 ± 2638110.11 pg/mg, the “Lactosyl 16:0” value (liver) was 401293.8 ± 92547.01 pg/mg and the “Lactosyl 18:0” value (liver) was 0.0 ± 0.0 pg/mg. The “Lactosyl 22:0” value (liver) was 604972.0 ± 219908.19 pg/mg, the “Lactosyl 24:1” value (liver) was 424590.5 ± 191122.31 pg/mg and the “Lactosyl C24:0” value (liver) was 317251.2 ± 183613.54 pg/mg. For the same compound, the Sphingaine1P (liver) was 55129.9 ± 14495.18 pg/mg, the Sphinganine (liver) was 299552.9 ± 52030.89 pg/mg and the Sphingosine (liver) was 1192462 ± 75216.97 pg/mg. For the same compound, the Sphingosine1P (liver) was 178631.8 ± 67607.36 pg/mg, the “dCer 16:0” value (liver) was 18233.3 ± 21176.21 pg/mg and the “dCer 18:0” value (liver) was 45901.3 ± 42922.13 pg/mg. For the same compound, the “dCer 20:0” value (liver) was 37867.7 ± 27772.5 pg/mg, the “dCer 22:0” value (liver) was 385034 ± 150652 pg/mg and the “dCer 24:0” value (liver) was 364847.1 ± 73663.91 pg/mg. The “dCer 24:1” value (liver) was 130075.8 ± 53105.06 pg/mg, the “Cer 14:0” value (pancreas) was 26.4 ± 4.51 pg/mg and the “Cer 16:0” value (pancreas) was 26.1 ± 10.18 pg/mg. The “Cer 18:0” value (pancreas) was 28.9 ± 6.11 pg/mg, the “Cer 18:1” value (pancreas) was 0 pg/mg and the “Cer 20:0” value (pancreas) was 1529.7 ± 140.3 pg/mg. The “Cer 22:0” value (pancreas) was 7541.1 ± 1118.82 pg/mg, the “Cer 24:0” value (pancreas) was 21064.5 ± 2932.0 pg/mg and the “Cer 24:1” value (pancreas) was 10791.6 ± 1783.65 pg/mg. For the same compound, the “Cer 26:0” value (pancreas) was 155.6 ± 36.08 pg/mg, the “Cer 26:1” value (pancreas) was 81.6 ± 16.04 pg/mg and the DeoxySphinganie (pancreas) was 2.1 ± 0.29 pg/mg. For the same compound, the Deoxysphingosine (pancreas) was 0.0 ± 0.0 pg/mg, the “Hexosyl 14:0” value (pancreas) was 3.8 ± 0.85 pg/mg and the “Hexosyl 16:0” value (pancreas) was 2561.5 ± 453.4 pg/mg. The “Hexosyl 18:0” value (pancreas) was 7.3 ± 3.14 pg/mg, the “Hexosyl 20:0” value (pancreas) was 112.7 ± 34.01 pg/mg and the “Hexosyl 22:0” value (pancreas) was 6774.3 ± 637.6 pg/mg. For the same compound, the “Hexosyl 24:0” value (pancreas) was 3358.5 ± 311.97 pg/mg, the “Hexosyl 24:1” value (pancreas) was 1427.8 ± 124.45 pg/mg and the “Lactosyl 16:0” value (pancreas) was 975.8 ± 208.21 pg/mg. For the same compound, the “Lactosyl 18:0” value (pancreas) was 52.8 ± 9.76 pg/mg, the “Lactosyl 22:0” value (pancreas) was 223.0 ± 50.43 pg/mg and the “Lactosyl 24:1” value (pancreas) was 310.1 ± 93.68 pg/mg. For the same compound, the “Lactosyl C24:0” value (pancreas) was 2057.1 ± 422.83 pg/mg, the Sphingaine1P (pancreas) was 17.5 ± 11.69 pg/mg and the Sphinganine (pancreas) was 25.9 ± 3.48 pg/mg. The Sphingosine (pancreas) was 217.3 ± 27.75 pg/mg, the Sphingosine1P (pancreas) was 90.3 ± 22.26 pg/mg and the “dCer 16:0” value (pancreas) was 3.8 ± 1.52 pg/mg. For the same compound, the “dCer 18:0” value (pancreas) was 0.0 ± 0.0 pg/mg, the “dCer 20:0” value (pancreas) was 2.0 ± 0.18 pg/mg and the “dCer 22:0” value (pancreas) was 24.6 ± 9.85 pg/mg. The “dCer 24:0” value (pancreas) was 206.7 ± 49.68 pg/mg, the “dCer 24:1” value (pancreas) was 24.0 ± 10.28 pg/mg and the “Cer 14:0” value (scWAT) was 41670.5 ± 9888.98 pg/mg. The “Cer 16:0” value (scWAT) was 200569.4 ± 60832.18 pg/mg, the “Cer 18:0” value (scWAT) was 90968.7 ± 40221.97 pg/mg and the “Cer 18:1” value (scWAT) was 24648 ± 8680 pg/mg. For the same compound, the “Cer 20:0” value (scWAT) was 189778.3 ± 38166.38 pg/mg, the “Cer 22:0” value (scWAT) was 835762.6 ± 112294.65 pg/mg and the “Cer 24:0” value (scWAT) was 2316061.3 ± 1012651.99 pg/mg. The “Cer 24:1” value (scWAT) was 2616280.7 ± 714833.34 pg/mg, the “Cer 26:0” value (scWAT) was 25284.4 ± 8047.31 pg/mg and the “Cer 26:1” value (scWAT) was 27852.3 ± 8212.8 pg/mg. For the same compound, the DeoxySphinganie (scWAT) was 1039.3 ± 1085.07 pg/mg, the Deoxysphingosine (scWAT) was 0.0 ± 0.0 pg/mg and the “Hexosyl 14:0” value (scWAT) was 3863.9 ± 2313.65 pg/mg. For the same compound, the “Hexosyl 16:0” value (scWAT) was 1558779.8 ± 419292.53 pg/mg and the “Hexosyl 18:0” value (scWAT) was 879349.9 ± 318302.5 pg/mg.
